Tested on: subjects undergoing elective total knee replacement surgery
Assay: Phase 2 study of milvexian versus enoxaparin after elective total knee replacement: venous thromboembolism events
Format: in vivo, human
Conditions: for Major VTE % / Major VTE n / Total VTE % / Total VTE RR vs. Enoxaparin / Total VTE n: mITT, Day 14; for Asymptomatic distal DVT % / Asymptomatic distal DVT n / Asymptomatic proximal DVT % / Asymptomatic proximal DVT n / Death n / Distal DVT % / Distal DVT n / Non-fatal PE n / Proximal DVT % / Proximal DVT n / Symptomatic distal DVT n / Symptomatic proximal DVT n / Non-fatal PE % / Symptomatic distal DVT %: through day 14; for incidence of segments with the most severe DVT severity score of 3: subjects with DVT on venography
Source text: [table] […] The study used a prospective, randomized, open-label, blinded endpoint (PROBE) design. […] The enoxaparin control arm likewise completed its pre-specified randomization of 300 subjects. […] FIG. 1 provides the study design, including number of subjects randomized into each study arm. […] An adaptive design was used to optimize patient recruitment for the dose-response evaluation. The number of dose regimens, the option to implement additional once daily dosing regimens, and the randomization ratio were based on the results of the periodic reviews and interim analysis. […] Randomization was performed postoperatively using a centralized interactive web-based response system and was stratified by geographic region of the study centers. […] Enoxaparin was given subcutaneously at a dose of 40 mg once daily and was started either the evening before or 12 to 24 hours after surgery. […] The primary efficacy outcome was venous thromboembolism, defined as the composite of asymptomatic deep-vein thrombosis (detected by mandatory unilateral venography performed 10 to 14 days after surgery), confirmed symptomatic venous thromboembolism (symptomatic deep-vein thrombosis of the leg or nonfatal pulmonary embolism), or death. […] Factor XI antisense oligonucleotide for prevention of venous thrombosis. N Engl J Med 2015; 372:232-40; Fuji et al., A dose-ranging study evaluating the oral factor Xa inhibitor edoxaban for the prevention of venous thromboembolism in patients undergoing total knee arthroplasty. J Thromb Haemost 2010; 8:2458-68). The major secondary efficacy outcomes were: (a) proximal deep-vein thrombosis (symptomatic or asymptomatic), (b) distal deep-vein thrombosis (symptomatic or asymptomatic) (c) nonfatal pulmonary embolism, and (d) death. An exploratory efficacy outcome was the extent of venous thrombosis on venography, which was assessed by the adjudication committee using predefined categories. […] Statistics in Medicine 2014; 33:1646-61). […] Venograms, assessed by independent blinded adjucators, were used to identify, and to assign DVT severity scores to, subjects with DVT. […] For each evaluated segment, a severity score was assigned depending on the presence and, if present, extension of the clot in the segment of the vein. Severity scores, on a scale of 0-3, were assigned as follows: 0=no clot; 1=less than ⅓; 2=greater than or equal to ⅓ but less than ⅔; and 3=greater than ⅔ the length of the vein segment.

[1] = milvexian all regimens combined
[2] = milvexian combined BID regimens

Structure (SMILES): C[C@@H]1CCC[C@H](n2cnc(-c3cc(Cl)ccc3-n3cc(Cl)nn3)cc2=O)c2cc(ccn2)-c2c(cnn2C(F)F)NC1=O [milvexian, (5R,9S)-9-(4-(5-chloro-2-(4-chloro-1H-1,2,3-triazol-1-yl)phenyl)-6-oxopyrimidin-1(6H)-yl)-21-(difluoromethyl)-5-methyl-21H-3-aza-1(4,2)-pyridina-2(5,4)-pyrazolacyclononaphan-4-one]
- Major VTE % (milvexian 25 mg BID): 0.8%
- Major VTE n (milvexian 25 mg BID): 1 n
- Total VTE % (milvexian 25 mg BID): 21.0%
- Total VTE RR vs. Enoxaparin (milvexian 25 mg BID): 0.97
- Total VTE n (milvexian 25 mg BID): 27 n
- Major VTE % (milvexian 25 mg BID, listed as Milvexian): (0.8%)
- Asymptomatic distal DVT % (milvexian 25 mg BID): 20.2%
- Asymptomatic distal DVT n (milvexian 25 mg BID): 26 n
- Asymptomatic proximal DVT % (milvexian 25 mg BID): 0.8%
- Asymptomatic proximal DVT n (milvexian 25 mg BID): 1 n
- Death n (milvexian 25 mg BID): 0 n
- Distal DVT % (milvexian 25 mg BID): 20.2%
- Distal DVT n (milvexian 25 mg BID): 26 n
- Non-fatal PE n (milvexian 25 mg BID): 0 n
- Proximal DVT % (milvexian 25 mg BID): 0.8%
- Proximal DVT n (milvexian 25 mg BID): 1 n
- Symptomatic distal DVT n (milvexian 25 mg BID): 0 n
- Symptomatic proximal DVT n (milvexian 25 mg BID): 0 n
- Major VTE n (milvexian 25 mg once daily): 0 n
- Total VTE % (milvexian 25 mg once daily): (25.0%)
- Total VTE RR vs. Enoxaparin (milvexian 25 mg once daily): 1.00
- Total VTE n (milvexian 25 mg once daily): 7 n
- Major VTE % (milvexian 50 mg BID): 0.8%
- Major VTE n (milvexian 50 mg BID): 1 n
- Total VTE % (milvexian 50 mg BID): 11.3%
- Total VTE RR vs. Enoxaparin (milvexian 50 mg BID): 0.53
- Total VTE n (milvexian 50 mg BID): 14 n
- Major VTE % (milvexian 50 mg BID, listed as Milvexian): (0.8%)
- incidence of segments with the most severe DVT severity score of 3 (milvexian 50 mg BID): 0%
- Asymptomatic distal DVT % (milvexian 50 mg BID): 10.5%
- Asymptomatic distal DVT n (milvexian 50 mg BID): 13 n
- Asymptomatic proximal DVT n (milvexian 50 mg BID): 0 n
- Death n (milvexian 50 mg BID): 0 n
- Distal DVT % (milvexian 50 mg BID): 10.5%
- Distal DVT n (milvexian 50 mg BID): 13 n
- Non-fatal PE % (milvexian 50 mg BID): 0.8%
- Non-fatal PE n (milvexian 50 mg BID): 1 n
- Proximal DVT n (milvexian 50 mg BID): 0 n
- Symptomatic distal DVT n (milvexian 50 mg BID): 0 n
- Symptomatic proximal DVT n (milvexian 50 mg BID): 0 n
- Major VTE % (milvexian 50 mg once daily): 1.6%
- Major VTE n (milvexian 50 mg once daily): 2 n
- Total VTE % (milvexian 50 mg once daily): (23.6%)
- Total VTE RR vs. Enoxaparin (milvexian 50 mg once daily): 1.15
- Total VTE n (milvexian 50 mg once daily): 30 n
- Major VTE % (milvexian 50 mg once daily, listed as Milvexian): (1.6%)
- Major VTE % (milvexian 100 mg BID): 1.5%
- Major VTE n (milvexian 100 mg BID): 2 n
- Total VTE % (milvexian 100 mg BID): 9.0%
- Total VTE RR vs. Enoxaparin (milvexian 100 mg BID): 0.42
- Total VTE n (milvexian 100 mg BID): 12 n
- Major VTE % (milvexian 100 mg BID, listed as Milvexian): (1.5%)
- incidence of segments with the most severe DVT severity score of 3 (milvexian 100 mg BID): 1.52%
- Asymptomatic distal DVT % (milvexian 100 mg BID): 7.5%
- Asymptomatic distal DVT n (milvexian 100 mg BID): 10 n
- Asymptomatic proximal DVT % (milvexian 100 mg BID): 0.7%
- Asymptomatic proximal DVT n (milvexian 100 mg BID): 1 n
- Death n (milvexian 100 mg BID): 0 n
- Distal DVT % (milvexian 100 mg BID): 7.5%
- Distal DVT n (milvexian 100 mg BID): 10 n
- Non-fatal PE % (milvexian 100 mg BID): 0.7%
- Non-fatal PE n (milvexian 100 mg BID): 1 n
- Proximal DVT % (milvexian 100 mg BID): 0.7%
- Proximal DVT n (milvexian 100 mg BID): 1 n
- Symptomatic distal DVT % (milvexian 100 mg BID): 0.7%
- Symptomatic distal DVT n (milvexian 100 mg BID): 1 n
- Symptomatic proximal DVT n (milvexian 100 mg BID): 0 n
- Major VTE n (milvexian 200 mg BID): 0 n
- Total VTE % (milvexian 200 mg BID): 7.6%
- Total VTE RR vs. Enoxaparin (milvexian 200 mg BID): 0.37
- Total VTE n (milvexian 200 mg BID): 10 n
- incidence of segments with the most severe DVT severity score of 3 (milvexian 200 mg BID): 2.73%
- Asymptomatic distal DVT % (milvexian 200 mg BID): 7.6%
- Asymptomatic distal DVT n (milvexian 200 mg BID): 10 n
- Asymptomatic proximal DVT n (milvexian 200 mg BID): 0 n
- Death n (milvexian 200 mg BID): 0 n
- Distal DVT % (milvexian 200 mg BID): 7.6%
- Distal DVT n (milvexian 200 mg BID): 10 n
- Non-fatal PE n (milvexian 200 mg BID): 0 n
- Proximal DVT n (milvexian 200 mg BID): 0 n
- Symptomatic distal DVT n (milvexian 200 mg BID): 0 n
- Symptomatic proximal DVT n (milvexian 200 mg BID): 0 n
- Major VTE n (milvexian 200 mg once daily): 0 n
- Total VTE % (milvexian 200 mg once daily): (6.5%)
- Total VTE RR vs. Enoxaparin (milvexian 200 mg once daily): 0.30
- Total VTE n (milvexian 200 mg once daily): 8 n
- incidence of segments with the most severe DVT severity score of 3 (milvexian 200 mg once daily): 0%
- Total VTE % [1]: 13.6%
- Total VTE n [1]: 108 n
- reduction of total VTE compared to enoxaparin (milvexian at total daily doses of ≥200 mg): > 50%
- Total VTE % [2]: 12.2%
- Total VTE n [2]: 63 n
- Asymptomatic distal DVT % [2]: 11.4%
- Asymptomatic distal DVT n [2]: 59 n
- Asymptomatic proximal DVT % [2]: 0.4%
- Asymptomatic proximal DVT n [2]: 2 n
- Death n [2]: 0 n
- Distal DVT % [2]: 11.4%
- Distal DVT n [2]: 59 n
- Non-fatal PE % [2]: 0.4%
- Non-fatal PE n [2]: 2 n
- Proximal DVT % [2]: 0.4%
- Proximal DVT n [2]: 2 n
- Symptomatic distal DVT % [2]: 0.2%
- Symptomatic distal DVT n [2]: 1 n
- Symptomatic proximal DVT n [2]: 0 n
